From patent publication US4513001A, “β-Adrenergic 1-[1-benzimidazolyl]-N-[2-(4-hydroxy-3-methoxy-phenyl)-2-hydroxy-ethyl]- 3-amino butane and salts and hydrates thereof” (priority 1982, dated 1985)
Entries after “also recorded” stand apart in the source; their conditions may differ. Read-outs that look alike come from different tables or passages of the source.

Assays:
[1] = tested on: isolated trachea preparation of the guinea pig; experiment: Relaxant activity on isolated tracheal muscle in vitro
Method: This activity was studied on an isolated trachea preparation of the guinea pig (chain of tracheal rings, according to CASTILLO and BEER. Journ. Pharmacol. Exp. Ther. 1947 90 104-109), kept alive in a KREBS solution. The effect of cumulative doses on the pressure of the preparation was recorded.
The activity of the substance was expressed by the value of the molar CD50 (decontracting concentration 50=concentration giving 50% of maximum relaxation), of which the negative log. is the value pD2, and by the intrinsic activity corresponding to maximum effect.
These values were determined in parallel for the compound A and Salbutamol, on 6 preparations for each.

histamine bronchospasm [2] = experiment: Bronchodilator activity in vivo, anesthetized guinea pig, intravenous (inhibition of histamine bronchospasm, KONZETT); settings: for % inhibition in time: i.v.
Method: (§1) 1.2.1 In the anesthesized guinea pig (method of KONZETT. Arch. Exp. Pathol. Pharmakol. 1940 195 71-74)
(§2) A bronchospasm was caused by intravenous histamine injection. The bronchodilator activity was shown by partial or total inhibition of this spasm.
The product studied was administered intravenously or intraduodenaly and histamine injected then at different times to follow the delay in appearance and the duration of the inhibiting effect of the treatment. […]

histamine bronchospasm [3] = experiment: Bronchodilator activity in vivo, anesthetized guinea pig, intraduodenal (inhibition of histamine bronchospasm, KONZETT)
Method: as §1, §2
The product studied was administered intravenously or intraduodenaly and histamine injected then at different times to follow the delay in appearance and the duration of the inhibiting effect of the treatment.
The results below are the averages of the values obtained in 10 animals.

histamine bronchospasm [4] = experiment: Bronchodilator activity in vivo, anesthetized dog, intraduodenal (intratracheal pressure, histamine bronchospasm)
Method: 1.2.2. In the anesthesized dog (recording of the intratracheal pressure)
A bronchospasm was caused by intravenous injection and histamine. The bronchodilator activity was shown by partial or total inhibition of this spasm.
The products studied were administered intraduodenally and the histamine injected then at various times to follow the effect of the treatment.
The results borne in the table below are the averages of the values obtained in 3 animals for each product.

rat uterus preparation = experiment: Uterus relaxing activity in vitro; settings: for EC50: Rattus norvegicus, 7 preparations, read-out: CE50 (effective concentration 50, inhibiting by 50% the control contraction)
Text: This activity was investigated on a rat uterus preparation, put into estrus by cutaneous injection of oestradiol benzoate. The uterine horns were kept alive in a RINGER-LOCKE solution, modified by GADDUM and VOGT.
Their activity is expressed by the value of the molar CE50 (effective concentration 50, inhibiting by 50% the control contraction induced by the contracting agent).
Each CE50 indicated below was obtained from the results of 7 preparations.

[5] = tested on: isolated right atrium preparation of the guinea pig; experiment: Activity on the heart rate in vitro, isolated right atrium; settings: for Heart rate, maximum: basal 209 (Compound A), 202 (Salbutamol); for Tachycardiac activity in vitro (comparison with Salbutamol): sulphate, dihydrate
Method: This action was studied on an isolated right atrium preparation of the guinea pig kept alive in a RINGER solution. The effect of cumulative doses on the heart rate was recorded. The results below are the averages of 6 preparations of the compound A, of 4 for Salbutamol

[6] = tested on: heart rate and mean aortic pressure; experiment: Heart rate and mean aortic pressure of the anesthetised dog, intraduodenal; format: in vivo; settings: for Heart rate, maximum cumulative effect / Average aortic pressure, maximum cumulative effect: intraduodenal
Method: 3.1.1. Activity on the heart rate and on the mean aortic pressure of the anesthetisied dog
The activity of the compound A and of Salbutamol was studied on 2 batches of 3 dogs per product: one in spontaneous respiration, the other in artificial respiration; the two substances were administered intraduodenally at 3 doses: 0.008-0.025 and 0.08 mg/kg.

guinea pig trachea = experiment: β-stimulant specificity: guinea pig trachea before and after propranolol; settings: for EC50: Cavia porcellus, 6 preparations
Text: respiratory (guinea pig trachea, in vitro)
cardiovascular (heart rate of the dog, in vivo) by the antagonistic effect of a β-blocking product.

COc1cc(C(O)CNC(C)CCn2cnc3ccccc32)ccc1O (centres unmarked) [Compound A, 1-[1-benzimidazolyl]-N-[2-(4-hydroxy-3-methoxy-phenyl)2-hydroxy-ethyl]3-amino butane basic sulphate, dihydrate]
Maximum response (decontraction) ([1]; 6 preparations): 390 mg | Emax ([1]; Cavia porcellus, 6 preparations, Salbutamol 1.00, read-out: Intrinsic activity): 109% | EC50 ([1]; Cavia porcellus, 6 preparations, read-out: CD50 (decontracting concentration 50, concentration giving 50% of maximum relaxation)): 71 nM | EC50 ([1]; Cavia porcellus, negative log of molar CD50, 6 preparations, read-out: pD2 (converted)): 70.8 nM | Activity on the tracheal muscle (comparison with Salbutamol) ([1]; in vitro, in words): very close to that of Salbutamol | % inhibition in time (histamine bronchospasm [2]; 0.08 μg base/kg, 1 min): 1% | % inhibition in time (histamine bronchospasm [2]; 0.08 μg base/kg, 5 min): 1% | % inhibition in time (histamine bronchospasm [2]; 0.08 μg base/kg, 10 min): 0% | % inhibition in time (histamine bronchospasm [2]; 0.08 μg base/kg, 15 min): 0% | % inhibition in time (histamine bronchospasm [2]; 0.25 μg base/kg, 1 min): 9% | % inhibition in time (histamine bronchospasm [2]; 0.25 μg base/kg, 5 min): 1% | % inhibition in time (histamine bronchospasm [2]; 0.25 μg base/kg, 10 min): 0% | % inhibition in time (histamine bronchospasm [2]; 0.25 μg base/kg, 15 min): 0% | % inhibition in time (histamine bronchospasm [2]; 0.8 μg base/kg, 1 min): 36% | % inhibition in time (histamine bronchospasm [2]; 0.8 μg base/kg, 5 min): 3% | % inhibition in time (histamine bronchospasm [2]; 0.8 μg base/kg, 10 min): 2% | % inhibition in time (histamine bronchospasm [2]; 0.8 μg base/kg, 15 min): 3% | % inhibition in time (histamine bronchospasm [2]; 2.5 μg base/kg, 1 min): 66% | % inhibition in time (histamine bronchospasm [2]; 2.5 μg base/kg, 5 min): 13% | % inhibition in time (histamine bronchospasm [2]; 2.5 μg base/kg, 10 min): 8% | % inhibition in time (histamine bronchospasm [2]; 2.5 μg base/kg, 15 min): 8% | % inhibition in time (histamine bronchospasm [2]; 8 μg base/kg, 1 min): 73% | % inhibition in time (histamine bronchospasm [2]; 8 μg base/kg, 5 min): 17% | % inhibition in time (histamine bronchospasm [2]; 8 μg base/kg, 10 min): 12% | % inhibition in time (histamine bronchospasm [2]; 8 μg base/kg, 15 min): 8% | % inhibition in time (histamine bronchospasm [2]; 25 μg base/kg, 1 min): 92% | % inhibition in time (histamine bronchospasm [2]; 25 μg base/kg, 5 min): 52% | % inhibition in time (histamine bronchospasm [2]; 25 μg base/kg, 10 min): 38% | % inhibition in time (histamine bronchospasm [2]; 25 μg base/kg, 15 min): 28% | % inhibition in time (histamine bronchospasm [2]; 84 μg base/kg, 1 min): 92% | % inhibition in time (histamine bronchospasm [2]; 84 μg base/kg, 5 min): 80% | % inhibition in time (histamine bronchospasm [2]; 84 μg base/kg, 10 min): 70% | % inhibition in time (histamine bronchospasm [2]; 84 μg base/kg, 15 min): 63% | % inhibition in time (histamine bronchospasm [2]; 84 μg base/kg, 30 min): 51% | % inhibition in time (histamine bronchospasm [2]; 84 μg base/kg, 45 min): 36% | % inhibition in time (histamine bronchospasm [2]; 84 μg base/kg, 60 min): 21% | Bronchodilator activity (comparison with Salbutamol) (histamine bronchospasm [2]; intravenous, in words): activity of the same order, although very slightly less for compound A at low doses; at the highest dose, the effect is intense and lasting, the compound A had an activity at least equal to that of Salbutamol | % inhibition in time (histamine bronchospasm [3]; 0.25 mg base/kg, 1 min): 11% | % inhibition in time (histamine bronchospasm [3]; 0.25 mg base/kg, 5 min): 27% | % inhibition in time (histamine bronchospasm [3]; 0.25 mg base/kg, 15 min): 26% | % inhibition in time (histamine bronchospasm [3]; 0.25 mg base/kg, 30 min): 26% | % inhibition in time (histamine bronchospasm [3]; 0.25 mg base/kg, 45 min): 19% | % inhibition in time (histamine bronchospasm [3]; 0.25 mg base/kg, 60 min): 13% | % inhibition in time (histamine bronchospasm [3]; 0.25 mg base/kg, 90 min): 9% | % inhibition in time (histamine bronchospasm [3]; 0.8 mg base/kg, 1 min): 16% | % inhibition in time (histamine bronchospasm [3]; 0.8 mg base/kg, 5 min): 60% | % inhibition in time (histamine bronchospasm [3]; 0.8 mg base/kg, 15 min): 61% | % inhibition in time (histamine bronchospasm [3]; 0.8 mg base/kg, 30 min): 44% | % inhibition in time (histamine bronchospasm [3]; 0.8 mg base/kg, 45 min): 29% | % inhibition in time (histamine bronchospasm [3]; 0.8 mg base/kg, 60 min): 23% | % inhibition in time (histamine bronchospasm [3]; 0.8 mg base/kg, 90 min): 21% | % inhibition in time (histamine bronchospasm [3]; 2.5 mg base/kg, 1 min): 20% | % inhibition in time (histamine bronchospasm [3]; 2.5 mg base/kg, 5 min): 73% | % inhibition in time (histamine bronchospasm [3]; 2.5 mg base/kg, 15 min): 65% | % inhibition in time (histamine bronchospasm [3]; 2.5 mg base/kg, 30 min): 53% | % inhibition in time (histamine bronchospasm [3]; 2.5 mg base/kg, 45 min): 44% | % inhibition in time (histamine bronchospasm [3]; 2.5 mg base/kg, 60 min): 39% | % inhibition in time (histamine bronchospasm [3]; 2.5 mg base/kg, 90 min): 34% | % inhibition in time (histamine bronchospasm [3]; 2.5 mg base/kg, 120 min): 30% | % inhibition in time (histamine bronchospasm [3]; 8 mg base/kg, 1 min): 51% | % inhibition in time (histamine bronchospasm [3]; 8 mg base/kg, 5 min): 82% | % inhibition in time (histamine bronchospasm [3]; 8 mg base/kg, 15 min): 82% | % inhibition in time (histamine bronchospasm [3]; 8 mg base/kg, 30 min): 71% | % inhibition in time (histamine bronchospasm [3]; 8 mg base/kg, 45 min): 67% | % inhibition in time (histamine bronchospasm [3]; 8 mg base/kg, 60 min): 65% | % inhibition in time (histamine bronchospasm [3]; 8 mg base/kg, 90 min): 59% | % inhibition in time (histamine bronchospasm [3]; 8 mg base/kg, 120 min (n = 9 compound A, n = 8 Salbutamol)): 55% | minimal effective dose (histamine bronchospasm [3]; Cavia porcellus, read-out: Threshold active dose): 0.25 mg/kg | Bronchodilator activity (comparison, in words) (histamine bronchospasm [3]; sulphate, dihydrate): more lasting at 8 mg/kg; also recorded: more active than Salbutamol | % inhibition in time (histamine bronchospasm [4]; 0.025 mg base/kg, 5 min): 48% | % inhibition in time (histamine bronchospasm [4]; 0.025 mg base/kg, 20 min): 60% | % inhibition in time (histamine bronchospasm [4]; 0.025 mg base/kg, 35 min): 67% | % inhibition in time (histamine bronchospasm [4]; 0.025 mg base/kg, 60 min): 63% | % inhibition in time (histamine bronchospasm [4]; 0.025 mg base/kg, 90 min): 62% | % inhibition in time (histamine bronchospasm [4]; 0.08 mg base/kg, 5 min): 70% | % inhibition in time (histamine bronchospasm [4]; 0.08 mg base/kg, 20 min): 78% | % inhibition in time (histamine bronchospasm [4]; 0.08 mg base/kg, 35 min): 76% | % inhibition in time (histamine bronchospasm [4]; 0.08 mg base/kg, 60 min): 70% | % inhibition in time (histamine bronchospasm [4]; 0.08 mg base/kg, 90 min): 60% | Bronchodilator activity (comparison, in words) (histamine bronchospasm [4]; sulphate, dihydrate): acted more rapidly (inhibition already strong in 5 minutes); also recorded: activity was higher than or equal to that of Salbutamol, is characterised by its great speed of action | EC50 (rat uterus preparation; contracting agent acetylcholine): 0.67 nM | EC50 (rat uterus preparation; contracting agent serotonine): 2.4 nM | Activity on the uterus (comparison with Salbutamol) (rat uterus preparation; in vitro, in words): of the same order of that of Salbutamol | Heart rate, increase ([5]; 1 × 10^-5 mol (maxi for Salbutamol)): +47 beats per min. | Heart rate, maximum ([5]; 1 × 10^-5 mol): 256 beats per min. | Heart rate, increase ([5]; 1 × 10^-6 mol (maxi for Compound A)): +49 beats per min. | Heart rate, maximum ([5]; 1 × 10^-6 mol): 258 beats per min. | Heart rate, increase ([5]; 1 × 10^-7 mol): +40 beats per min. | Heart rate, maximum ([5]; 1 × 10^-7 mol): 249 beats per min. | Emax ([5]; Cavia porcellus, same preparation, at the start of the test, read-out: Maximum as % of the maximum tachycardia obtained with isoprenaline): < 50% | CE50 and pD2 on heart rate (not calculable) ([5]; in vitro, in words): this low activity prevents calculation of a CE50 and a pD2 | Tachycardiac activity in vitro (comparison with Salbutamol) ([5]; in words, listed as Compound a): only a partial effect, very much less than that of Salbutamol | Tachycardiac activity in vitro (comparison with Salbutamol) ([5]; in words): increases the rate but the maximum effect is very much less than that of Salbutamol | Tachycardiac and hypotensive effect (comparison with Salbutamol) ([6]; anesthetised dog, in words): a little less tachycardiac and hypotensive than Salbutamol | Heart rate, maximum cumulative effect ([6]; artificial respiration, 10 min after 0.08 mg/kg): +20 cpm | Average aortic pressure, maximum cumulative effect ([6]; artificial respiration, 75 min after 0.08 mg/kg): -26 mmHg | Heart rate, maximum cumulative effect ([6]; spontaneous respiration, 15 min after 0.08 mg/kg): +17 cpm | Average aortic pressure, maximum cumulative effect ([6]; spontaneous respiration, 20 min after 0.08 mg/kg): -15 mmHg | EC50 (guinea pig trachea; read-out: CD50 before propranolol): 71 nM | EC50 (guinea pig trachea; propranolol 1.7×10^-8 mol, read-out: CD50 after propranolol): 250 nM | Ratio of CD50 (guinea pig trachea; after / before propranolol): 3.5
